Reference: patent publication US5026733A, “Brain function-improving medicine” (Tsumura & Co., priority 1988, dated 1991)

Tests used:
[1] = tested on: acetylcholine (ACh) content at cerebral cortex; test: ACh content at cerebral cortex (HPLC-ECD), with or without scopolamine; type: in vivo, male ICR strain mouse (9-weeks-old)
Method: (§1) The compound of the formula was orally administered to a male ICR strain mouse (9-weeks-old), and after 2 hours, 2 mg/kg of scopolamine was applied to the abdominal cavity. After 30 minutes, the mouse was irradiated with 10 KW of microwaves for 0.5 seconds, and the brain was extracted and then divided into two parts, that is, the cerebral cortex (inclusive of hippocampus) and the subcerebral part. The wet weights were measured and the acetylcholine (hereinafter referred to as "ACh") contents were measured according to the following method.
(§2) Each part of the brain was homogenized by 0.1N perchloric acid (HClO4)and subjected to centrifugal separation under 30000 g for 15 minutes. The supernatant was passed through a 0.45 μm microfilter and poured into HPLC-ECD.
(§3) The measurement conditions were as follows.
(§4) Moving phase: phosphate buffer (pH 8.0)
(§5) Enzyme immobilized column: Eicom AC-Enzmpak
(§6) Anakyzing column: Eicom AC-ODS (4.6 mm in diameter and 250 mm in length)
(§7) The compound of the formula was orally administered while scopolamine was not applied, and after 2 hours and 30 minutes, the ACh content was determined in the same manner as described above.

[2] = tested on: locomotor activity by methamphethamine; test: Methamphethamine-induced locomotor activity measured by animex; type: in vivo, male ICR strain mouse (5-weeks-old); conditions: 3 mg/kg p.o.
Method: The compound of the formula (3 mg/kg) was orally administered to a male ICR strain mouse (5-weeks-old), and after 2 hours, 2 mg/kg of methamphethamine was intraperitoneally administered. The locomotor activity for every 15 minutes was measured by an animex, and the measurement was conducted for 120 minutes. To the control group, 1% Tween 80 was administered instead of the compound of the formula, and after 2 hours, 2 mg/kg of methamphethamine was intraperitoneally administered. The locomotor activity was similarly measured.

[3] = tested on: acetylcholine (ACh) content at subcerebral part; test: ACh content at subcerebral part (HPLC-ECD), with or without scopolamine; type: in vivo, male ICR strain mouse (9-weeks-old)
Method: as §1, §2, §3, §4, §5, §6, §7

[4] = Spontaneous movement quantity measured by animex; type: in vivo, male ICR strain mouse (5-weeks-old); conditions: 3 mg/kg p.o.; 4 hours after administration; control 5123 ± 259
Method: (§8) A male ICR strain mouse (5-weeks-old) was admitted in a bright chamber of a step-through passive avoidance learning device. After 60 seconds, a guillotine door was opened. Just after the mouse entered a dark room, the guillotine door was shut, and a foot shock of 0.15 mA was given to the mouse for 5 seconds. This operation was conducted until the mouse stayed in the bright room for more than 1 minute. Then, the mouse was taken out and 3 mg/kg of the compound of the formula was orally administered, and the mouse was returned to a home cage.
(§9) After 24 hours, the mouse was admitted into the bright chamber, and after 60 seconds, the guillotine door was opened and the time required for the mouse to enter in the dark room was measured as 300 seconds at longest. Furthermore, 3 mg/kg of the compound of the formula was orally administered, and the spontaneous movement quantity for 4 hours after the oral administration was measured by an animex and the total quantity was calculated. Note, 1% Tween was orally administered to the control group.

[5] = Acute toxicity by oral administration, mice
[6] = Acute toxicity by oral administration, rats; conditions: rat, in vivo
[7] = tested on: locomotor activity by scopolamine; test: Scopolamine-induced locomotor activity measured by animex; type: in vivo, male ICR strain mouse (6-weeks-old); conditions: 3 mg/kg p.o.
Method: In the same manner as described in Test Example 2, 3 mg/kg of the compound of the formula was orally administered to a male ICR strain mouse (6-weeks-old), and after 2 hours, 2 mg/kg of scopolamine was intraperitoneally administered. For 120 minutes from the point of the application, the locomotor activity was measured by an animex. To the control group, 1% Tween 80 was orally administered and 2 mg/kg of scopolamine was intraperitoneally administered, and the locomotor activity was similarly measured.

[8] = Step-through passive avoidance learning test; type: in vivo, male ICR strain mouse (5-weeks-old); conditions: 3 mg/kg p.o.
Method: as §8, §9

[9] = also under the application of scopolamine

COc1cc2c(c(OC)c1OC)-c1c(cc(OC)c(OC)c1OC)C[C@](C)(O)[C@@H](C)C2 [compound of the formula]
ACh content at cerebral cortex ([1]; 3 mg/kg p.o., 2 mg/kg scopolamine after 2 h, scopolamine alone 11.4): 13.9 nM/g of wet weight | ACh content at cerebral cortex ([1]; 3 mg/kg p.o., no scopolamine, 2 h 30 min, untreated 15.7): 20.9 nM/g of wet weight | ACh content at cerebral cortex ([1]; 30 mg/kg p.o., 2 mg/kg scopolamine after 2 h, scopolamine alone 11.4): 13.7 nM/g of wet weight | ACh content at cerebral cortex ([1]; 30 mg/kg p.o., no scopolamine, 2 h 30 min, untreated 15.7): 21.7 nM/g of wet weight | ACh content at cerebral cortex (in words) [1, 9]: increases the ACh contents at the cerebral cortex | locomotor activity by methamphethamine (in words) [2]: controls the locomotor activity by methamphethamine | locomotor activity after 15 minutes ([2]; 2 h before 2 mg/kg i.p. methamphethamine, after 15 minutes, control 1250 ± 68): 1034 ± 111 | locomotor activity after 30 minutes ([2]; 2 h before 2 mg/kg i.p. methamphethamine, after 30 minutes, control 1551 ± 33): 1295 ± 34 | locomotor activity after 45 minutes ([2]; 2 h before 2 mg/kg i.p. methamphethamine, after 45 minutes, control 1511 ± 32): 1245 ± 50 | locomotor activity after 60 minutes ([2]; 2 h before 2 mg/kg i.p. methamphethamine, after 60 minutes, control 1429 ± 38): 1156 ± 49 | locomotor activity after 75 minutes ([2]; 2 h before 2 mg/kg i.p. methamphethamine, after 75 minutes, control 1344 ± 34): 1087 ± 40 | locomotor activity after 90 minutes ([2]; 2 h before 2 mg/kg i.p. methamphethamine, after 90 minutes, control 1228 ± 44): 989 ± 53 | locomotor activity after 120 minutes ([2]; 2 h before 2 mg/kg i.p. methamphethamine, after 120 minutes, control 1126 ± 28): 898 ± 60 | ACh content at subcerebral part ([3]; 3 mg/kg p.o., 2 mg/kg scopolamine after 2 h, scopolamine alone 23.3): 26.9 nM/g of wet weight | ACh content at subcerebral part ([3]; 3 mg/kg p.o., no scopolamine, 2 h 30 min, untreated 27.8): 35.0 nM/g of wet weight | ACh content at subcerebral part ([3]; 30 mg/kg p.o., 2 mg/kg scopolamine after 2 h, scopolamine alone 23.3): 26.1 nM/g of wet weight | ACh content at subcerebral part ([3]; 30 mg/kg p.o., no scopolamine, 2 h 30 min, untreated 27.8): 38.9 nM/g of wet weight | ACh content at subcerebral part (in words) [3, 9]: increases the ACh contents at the cerebral cortex and the subcerebral part | sum of spontaneous movement quantity for 4 hours [4]: 6693 ± 474 | LD50 ([5]; mouse, in vivo, po): 900 mg/kg | toxicity (in words) ([5]; oral acute toxicity, mice and rats): low toxicity | LD50 [6]: 900 mg/kg | locomotor activity by scopolamine (in words) [7]: controls the locomotor activity by scopolamine | locomotor activity ([7]; 2 h before 2 mg/kg i.p. scopolamine, for 120 minutes, control 6353±296): 3991±389 | avoidance learning function (in words) [8]: a reduction of the avoidance learning function is not observed | time required for mouse to enter dark room ([8]; 24 hours after foot shock training, measured as 300 seconds at longest, control 229 ± 30.4): > 300 s
